According to the supplement of paper PMC11451515:

Tested on: NOMO1
Assay: cell viability relative to DMSO control; higher = less cytotoxic
Conditions: 48 h
Summary of the method: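 Viability is a per-plate percentage relative to DMSO wells, with cell-free wells as background. CellTiter-Glo One luminescence was read after 48 h at 37°C on 1536-well plates (5 μl) of NOMO1 or SEM (500 cells/well) or P12-Ichikawa (1000 cells/well) leukemia cells. The cells had been adapted for at least four passages in each medium and pin-dosed with library compounds in DMSO from 47 μM to 0.79 nM in 11 threefold steps.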

[1] = HPLM + 10% dialyzed FBS, 0.000781 µM
[2] = HPLM + 10% dialyzed FBS, 0.00234 µM
[3] = HPLM + 10% dialyzed FBS, 0.00702 µM
[4] = HPLM + 10% dialyzed FBS, 0.0211 µM
[5] = HPLM + 10% dialyzed FBS, 0.0632 µM
[6] = HPLM + 10% dialyzed FBS, 0.19 µM
[7] = HPLM + 10% dialyzed FBS, 0.569 µM
[8] = HPLM + 10% dialyzed FBS, 1.71 µM
[9] = HPLM + 10% dialyzed FBS, 5.12 µM
[10] = HPLM + 10% dialyzed FBS, 15.4 µM
[11] = HPLM + 10% dialyzed FBS, 46.1 µM
[12] = RPMI 5 mM glucose + 10% FBS, 0.000781 µM
[13] = RPMI 5 mM glucose + 10% FBS, 0.00234 µM
[14] = RPMI 5 mM glucose + 10% FBS, 0.00702 µM
[15] = RPMI 5 mM glucose + 10% FBS, 0.0211 µM
[16] = RPMI 5 mM glucose + 10% FBS, 0.0632 µM
[17] = RPMI 5 mM glucose + 10% FBS, 0.19 µM
[18] = RPMI 5 mM glucose + 10% FBS, 0.569 µM
[19] = RPMI 5 mM glucose + 10% FBS, 1.71 µM
[20] = RPMI 5 mM glucose + 10% FBS, 5.12 µM
[21] = RPMI 5 mM glucose + 10% FBS, 15.4 µM
[22] = RPMI 5 mM glucose + 10% FBS, 46.1 µM
[23] = RPMI 5 mM glucose + 10% dialyzed FBS, 0.000781 µM
[24] = RPMI 5 mM glucose + 10% dialyzed FBS, 0.00234 µM
[25] = RPMI 5 mM glucose + 10% dialyzed FBS, 0.00702 µM
[26] = RPMI 5 mM glucose + 10% dialyzed FBS, 0.0211 µM
[27] = RPMI 5 mM glucose + 10% dialyzed FBS, 0.0632 µM
[28] = RPMI 5 mM glucose + 10% dialyzed FBS, 0.19 µM
[29] = RPMI 5 mM glucose + 10% dialyzed FBS, 0.569 µM
[30] = RPMI 5 mM glucose + 10% dialyzed FBS, 1.71 µM
[31] = RPMI 5 mM glucose + 10% dialyzed FBS, 5.12 µM
[32] = RPMI 5 mM glucose + 10% dialyzed FBS, 15.4 µM
[33] = RPMI 5 mM glucose + 10% dialyzed FBS, 46.1 µM

Row | SMILES | cell viability [1] | cell viability [2] | cell viability [3] | cell viability [4] | cell viability [5] | cell viability [6] | cell viability [7] | cell viability [8] | cell viability [9] | cell viability [10] | cell viability [11] | cell viability [12] | cell viability [13] | cell viability [14] | cell viability [15] | cell viability [16] | cell viability [17] | cell viability [18] | cell viability [19] | cell viability [20] | cell viability [21] | cell viability [22] | cell viability [23] | cell viability [24] | cell viability [25] | cell viability [26] | cell viability [27] | cell viability [28] | cell viability [29] | cell viability [30] | cell viability [31] | cell viability [32] | cell viability [33]
1 | Cc1csc(-c2nnc(Nc3ccc(Oc4ncccc4-c4ccnc(N)n4)cc3)c3ccccc23)c1 | 106% | 101% | 113% | 79% | 95.3% | 89.3% | 99.5% | 86.7% | 72.6% | 76.3% | 84.1% | 99.9% | 111% | 97.5% | 53.2% | 45.9% | 52.6% | 75.1% | 81.6% | 65.9% | 67.3% | 74.1% | 105% | 103% | 89.8% | 60.3% | 62% | 59% | 72.6% | 77.9% | 72.5% | 84.1% | 80.5%
2 | CC#CCn1c(N2CCC[C@@H](N)C2)nc2c1c(=O)n(Cc1nc(C)c3ccccc3n1)c(=O)n2C | 97.8% | 97.2% | 100% | 88.2% | 108% | 110% | 104% | 87.8% | 98.3% | 114% | 75.1% | 97.6% | 93.7% | 101% | 90.3% | 89% | 96.3% | 102% | 89% | 88.1% | 91.1% | 82% | 104% | 96.6% | 112% | 87.7% | 101% | 105% | 100% | 96.3% | 93.8% | 97.7% | 91.7%
3 | CCCCCNC(=O)N1CCC(CN(Cc2ccc(Cl)cc2)Cc2ccc([N+](=O)[O-])s2)C1 (stereo unspecified) | – | – | – | – | – | – | – | – | – | – | – | 123% | 111% | 104% | 102% | 107% | 120% | 108% | 112% | 110% | 94.5% | 94.8% | – | – | – | – | – | – | – | – | – | – | –
4 | NC[C@H]1O[C@H](O[C@@H]2[C@H](O)[C@@H](O[C@H]3O[C@H](CO)[C@@H](O)[C@H](N)[C@H]3O)[C@H](N)C[C@@H]2N)[C@H](O)[C@@H](O)[C@@H]1O | 132% | 122% | 121% | 111% | 135% | 127% | 113% | 129% | 112% | 121% | 109% | – | – | – | – | – | – | – | – | – | – | – | 120% | 128% | 114% | 124% | 113% | 124% | 113% | 123% | 120% | 106% | 112%
5 | C=CC(=O)Nc1cc2c(Nc3ccc(F)c(Cl)c3)ncnc2cc1OCCCN1CCOCC1 | 111% | 127% | 121% | 132% | 114% | 104% | 108% | 105% | 76.5% | 59.1% | 72.7% | 123% | 119% | 126% | 124% | 128% | 108% | 104% | 110% | 103% | 88.2% | 94.3% | 116% | 111% | 117% | 108% | 120% | 109% | 105% | 101% | 80.5% | 73.4% | 90.4%
6 | C=C[C@H]1CN2CCC1C[C@@H]2C(O)c1ccnc2ccc(OC)cc12 (stereo partly specified) | 111% | 133% | 115% | 107% | 135% | 116% | 128% | 108% | 105% | 125% | 102% | 111% | 116% | 114% | 108% | 127% | 120% | 119% | 119% | 116% | 107% | 104% | 110% | 119% | 116% | 121% | 124% | 110% | 127% | 117% | 106% | 107% | 100%
7 | COC(=O)C\1=C(C)\N\C(=C(/C1C2=CC=CC3=NON=C23)C(=O)OC(C)C)C (stereo unspecified) | 115% | 116% | 104% | 111% | 111% | 108% | 96.3% | 89.8% | 88.8% | 96.3% | 85.1% | 95.4% | 94.6% | 91.3% | 99.3% | 103% | 89.4% | 94.5% | 85.2% | 81.4% | 86.6% | 94.7% | 105% | 101% | 100% | 108% | 88.7% | 92.3% | 87.8% | 102% | 92.8% | 93.4% | 106%
8 | C[C@@H](CN1CC(=O)NC(=O)C1)N1CC(=O)NC(=O)C1 | 112% | 125% | 121% | 117% | 113% | 55.7% | 32.8% | 22.3% | 33% | 8.92% | 13.7% | 106% | 113% | 125% | 101% | 113% | 89% | 55.9% | 15.4% | 17.5% | 8.63% | 12.9% | 102% | 111% | 99.9% | 114% | 109% | 83% | 44.7% | 18.8% | 21.5% | 17.2% | 19.8%
